This is an account of results in PubChem BioAssay AID180 (DTP/NCI, 2004).

Values joined by “and” are separate entries in the source; they are usually repeats but may differ in a detail not shown here. Equal entries are not always repeated.

For the test, the system named is BDF1 mice, Adenocarcinoma 755 s.c., tumor weight T/C. The test is described as follows: NCI In Vivo Anticancer Drug Screen. Data for tumor model Adenocarcinoma 755 (subcutaneous) in B6D2F1 (BDF1) mice. To be noted: endpoint: mean tumor weight, higher = larger tumour. As to the method: The antitumor activity of compounds was measured in mice bearing transplantable tumors. Survival or tumor size were measured and the results are expressed as the measurement made in the treated group (T) divided by the measurement made in the vehicle treated control group (C). The tumor model used in this assay is Adenocarcinoma 755 (subcutaneous) in B6D2F1 (BDF1) mice

The mark [1] stands for this setting: dose: 50.0 mg/kg/injection, schedule: Q01DX011 (ip), vehicle: carboxymethylcellulose (CMC).
The mark [2] stands for this setting: dose: 100.0 mg/kg/injection, schedule: Q01DX011 (ip), vehicle: carboxymethylcellulose (CMC).
The mark [3] stands for this setting: dose: 25.0 mg/kg/injection, schedule: Q01DX011 (ip), vehicle: methylcellulose (MC).
Where [4] appears, read: dose: 50.0 mg/kg/injection, schedule: Q01DX011 (ip), vehicle: methylcellulose (MC).
Setting [5] is: dose: 100.0 mg/kg/injection, schedule: Q01DX011 (ip), vehicle: methylcellulose (MC).

For orientation: T/C means the result in the treated group divided by that in the control group, in per cent. `CC1=C(O)c2ccccc2C(=O)C1=O`: the T/C was 106 % of control (dose: 25.0 mg/kg/injection, schedule: Q01DX011 (ip), vehicle: other); 84 % of control (dose: 50.0 mg/kg/injection, schedule: Q01DX011 (ip), vehicle: other); 96 % of control (dose: 100.0 mg/kg/injection, schedule: Q01DX011 (ip), vehicle: other).
For the compound `C[C@]1(O)CC[C@H]2[C@@H]3CC[C@@H]4CC(=O)CC[C@]4(C)[C@@]3(F)C(=O)C[C@@]21C`, the T/C by setting is: (dose: 200.0 mg/kg/injection, schedule: Q01DX011 (sc), vehicle: steriod suspending solution) 72 % of control; (dose: 400.0 mg/kg/injection, schedule: Q01DX011 (sc), vehicle: steriod suspending solution) 117 % of control.
In the case of `CS(=O)(=O)OCCCl`, the T/C by setting is: (dose: 20.88 mg/kg/injection, schedule: Q01DX011 (ip), vehicle: carboxymethylcellulose (CMC)) 80 % of control; (dose: 28.73 mg/kg/injection, schedule: Q01DX011 (ip), vehicle: carboxymethylcellulose (CMC)) 80 % of control; (dose: 40.25 mg/kg/injection, schedule: Q01DX011 (ip), vehicle: carboxymethylcellulose (CMC)) 52 % of control; (dose: 41.75 mg/kg/injection, schedule: Q01DX011 (ip), vehicle: carboxymethylcellulose (CMC)) 117 % of control; (dose: 83.5 mg/kg/injection, schedule: Q01DX011 (ip), vehicle: carboxymethylcellulose (CMC)) 97 % of control; (dose: 114.9 mg/kg/injection, schedule: Q01DX011 (ip), vehicle: carboxymethylcellulose (CMC)) 88 % of control and 103 % of control. The T/C runs as follows: (dose: 130.0 mg/kg/injection, schedule: Q01DX011 (ip), vehicle: carboxymethylcellulose (CMC)) 54 % of control; (dose: 140.0 mg/kg/injection, schedule: Q01DX011 (ip), vehicle: carboxymethylcellulose (CMC)) 21 % of control; (dose: 150.0 mg/kg/injection, schedule: Q01DX011 (ip), vehicle: carboxymethylcellulose (CMC)) 11 % of control.
`CC1CN1P(=O)(N1CCc2ccccc21)N1CC1C` (centres undefined): the T/C was 97 % of control (dose: 28.0 mg/kg/injection, schedule: Q01DX011 (ip), vehicle: carboxymethylcellulose (CMC)); 67 % of control (dose: 56.0 mg/kg/injection, schedule: Q01DX011 (ip), vehicle: carboxymethylcellulose (CMC)); 41 % of control (dose: 113.0 mg/kg/injection, schedule: Q01DX011 (ip), vehicle: carboxymethylcellulose (CMC)); 2 % of control (dose: 226.0 mg/kg/injection, schedule: Q01DX011 (ip), vehicle: carboxymethylcellulose (CMC)).
Turning to `CCOC=Nc1c(N)ncnc1Cl`, the T/C is 67 % of control (dose: 30.0 mg/kg/injection, schedule: Q01DX011 (ip), vehicle: carboxymethylcellulose (CMC)); 107 % of control under setting [1]; 34 % of control (dose: 60.0 mg/kg/injection, schedule: Q01DX011 (ip), vehicle: carboxymethylcellulose (CMC)); 62 % of control (dose: 62.5 mg/kg/injection, schedule: Q01DX011 (ip), vehicle: olive oil, sesame oil, peanut oil); 60 % of control under setting [2]; 10 % of control (dose: 120.0 mg/kg/injection, schedule: Q01DX011 (ip), vehicle: carboxymethylcellulose (CMC)). The T/C is, setting by setting: (dose: 125.0 mg/kg/injection, schedule: Q01DX011 (ip), vehicle: olive oil, sesame oil, peanut oil) 65 % of control; (dose: 200.0 mg/kg/injection, schedule: Q01DX011 (ip), vehicle: carboxymethylcellulose (CMC)) 38 % of control; (dose: 240.0 mg/kg/injection, schedule: Q01DX011 (ip), vehicle: carboxymethylcellulose (CMC)) 2 % of control; (dose: 250.0 mg/kg/injection, schedule: Q01DX011 (ip), vehicle: olive oil, sesame oil, peanut oil) 43 % of control; (dose: 400.0 mg/kg/injection, schedule: Q01DX011 (ip), vehicle: carboxymethylcellulose (CMC)) 11 % of control; (dose: 500.0 mg/kg/injection, schedule: Q01DX011 (ip), vehicle: olive oil, sesame oil, peanut oil) 23 % of control.
Take `Ic1ncnc2c1ncn2C1CCCCO1` (centres undefined): the T/C runs as follows: (dose: 5.0 mg/kg/injection, schedule: Q01DX011 (ip), vehicle: other) 123 % of control; (dose: 10.0 mg/kg/injection, schedule: Q01DX011 (ip), vehicle: other) 47 % of control; (dose: 15.0 mg/kg/injection, schedule: Q01DX011 (ip), vehicle: other) 94 % of control; (dose: 20.0 mg/kg/injection, schedule: Q01DX011 (ip), vehicle: other) 68 % of control and 70 % of control; (dose: 30.0 mg/kg/injection, schedule: Q01DX011 (ip), vehicle: other) 100 % of control and 76 % of control; (dose: 31.0 mg/kg/injection, schedule: Q01DX011 (ip), vehicle: other) 14 % of control. The T/C (dose: 62.0 mg/kg/injection, schedule: Q01DX011 (ip), vehicle: other) was 14 % of control.
`CCCOC(=O)C1(N)CCCC1`: the T/C (dose: 12.5 mg/kg/injection, schedule: Q01DX011 (ip), vehicle: carboxymethylcellulose (CMC)) was 79 % of control; the T/C (dose: 25.0 mg/kg/injection, schedule: Q01DX011 (ip), vehicle: carboxymethylcellulose (CMC)) was 44 % of control; the T/C under setting [1] was 24 % of control; the T/C under setting [2] was 7 % of control.
Consider `CC(=O)[C@H]1CC[C@H]2[C@@H]3C[C@H](F)C4=CC(=O)CC[C@]4(C)[C@H]3C(=O)C[C@]12C`, for which the T/C is 82 % of control (dose: 3.5 mg/kg/injection, schedule: Q01DX011 (sc), vehicle: steriod suspending solution); 66 % of control (dose: 7.0 mg/kg/injection, schedule: Q01DX011 (sc), vehicle: steriod suspending solution); 15 % of control and 20 % of control (dose: 55.0 mg/kg/injection, schedule: Q01DX011 (sc), vehicle: steriod suspending solution); 13 % of control and 14 % of control (dose: 110.0 mg/kg/injection, schedule: Q01DX011 (sc), vehicle: steriod suspending solution); 3 % of control and 8 % of control (dose: 220.0 mg/kg/injection, schedule: Q01DX011 (sc), vehicle: steriod suspending solution).
Turning to `CC(C)CSc1nc(N)nc2c1ncn2CC(C)C`, the T/C runs as follows: under setting [3], 21 % of control; under setting [4], 12 % of control; under setting [5], 1 % of control.
As for `Cc1cccc(CSc2ncnc3nc[nH]c23)n1`, the T/C is, setting by setting: (dose: 12.5 mg/kg/injection, schedule: Q01DX011 (ip), vehicle: methylcellulose (MC)) 66 % of control; under setting [3], 51 % of control; under setting [4], 17 % of control; under setting [5], 6 % of control.
As for `Nc1nc2nc(/N=N/SCCC(=O)O)[nH]c2c(=O)[nH]1`, the T/C is 54 % of control (dose: 37.5 mg/kg/injection, schedule: Q01DX011 (ip), vehicle: methylcellulose (MC)) and 45 % of control (dose: 75.0 mg/kg/injection, schedule: Q01DX011 (ip), vehicle: methylcellulose (MC)).
As to `COc1ccc(-n2cnc3c(N)nc(N)nc32)cc1`, the T/C is 68 % of control under setting [3]; 62 % of control under setting [4]; 50 % of control under setting [5]; 57 % of control (dose: 200.0 mg/kg/injection, schedule: Q01DX011 (ip), vehicle: methylcellulose (MC)).
